Assays:
Nitric oxide synthase 3 = molecular target: T1, Nitric oxide synthase 3 (Bos taurus, UniProt P29473); assay: Inhibition against endothelial Nitric Oxide Synthase(eNOS)
T1 sequence (P29473 whole entry): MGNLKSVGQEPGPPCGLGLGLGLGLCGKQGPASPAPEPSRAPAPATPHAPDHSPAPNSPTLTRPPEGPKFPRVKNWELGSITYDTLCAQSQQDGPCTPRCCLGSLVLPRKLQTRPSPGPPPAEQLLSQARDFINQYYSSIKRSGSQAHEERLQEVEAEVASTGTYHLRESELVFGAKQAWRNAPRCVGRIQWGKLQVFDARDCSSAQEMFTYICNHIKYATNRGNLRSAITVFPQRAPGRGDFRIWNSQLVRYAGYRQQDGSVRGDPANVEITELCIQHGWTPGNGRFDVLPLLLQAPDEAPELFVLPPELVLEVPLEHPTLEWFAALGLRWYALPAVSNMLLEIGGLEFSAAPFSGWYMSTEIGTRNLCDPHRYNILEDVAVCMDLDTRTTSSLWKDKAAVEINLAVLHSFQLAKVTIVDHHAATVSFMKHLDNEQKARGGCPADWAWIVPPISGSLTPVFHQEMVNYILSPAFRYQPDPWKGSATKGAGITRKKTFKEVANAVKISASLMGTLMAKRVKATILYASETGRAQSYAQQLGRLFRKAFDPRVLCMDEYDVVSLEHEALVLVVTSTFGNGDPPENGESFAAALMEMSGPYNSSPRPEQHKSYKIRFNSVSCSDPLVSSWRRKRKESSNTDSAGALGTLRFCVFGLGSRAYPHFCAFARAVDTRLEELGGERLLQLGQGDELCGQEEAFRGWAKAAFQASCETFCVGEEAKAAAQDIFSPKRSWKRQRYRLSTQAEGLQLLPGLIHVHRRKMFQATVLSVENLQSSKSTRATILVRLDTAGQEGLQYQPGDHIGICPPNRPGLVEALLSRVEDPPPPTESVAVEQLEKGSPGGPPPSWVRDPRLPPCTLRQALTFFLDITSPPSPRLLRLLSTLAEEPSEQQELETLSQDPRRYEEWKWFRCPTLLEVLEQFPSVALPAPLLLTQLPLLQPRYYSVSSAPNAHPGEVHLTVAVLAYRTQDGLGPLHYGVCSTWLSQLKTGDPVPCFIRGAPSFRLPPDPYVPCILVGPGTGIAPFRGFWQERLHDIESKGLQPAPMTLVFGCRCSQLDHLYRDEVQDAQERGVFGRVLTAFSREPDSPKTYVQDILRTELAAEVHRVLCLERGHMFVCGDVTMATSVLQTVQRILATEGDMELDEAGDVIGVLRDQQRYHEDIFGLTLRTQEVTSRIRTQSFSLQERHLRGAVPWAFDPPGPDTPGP

[1] = molecular target: T2, Nitric oxide synthase, inducible (Mus musculus, UniProt P29477); assay: Inhibition against induced Nitric Oxide Synthase(iNOS)
T2 sequence (P29477 whole entry): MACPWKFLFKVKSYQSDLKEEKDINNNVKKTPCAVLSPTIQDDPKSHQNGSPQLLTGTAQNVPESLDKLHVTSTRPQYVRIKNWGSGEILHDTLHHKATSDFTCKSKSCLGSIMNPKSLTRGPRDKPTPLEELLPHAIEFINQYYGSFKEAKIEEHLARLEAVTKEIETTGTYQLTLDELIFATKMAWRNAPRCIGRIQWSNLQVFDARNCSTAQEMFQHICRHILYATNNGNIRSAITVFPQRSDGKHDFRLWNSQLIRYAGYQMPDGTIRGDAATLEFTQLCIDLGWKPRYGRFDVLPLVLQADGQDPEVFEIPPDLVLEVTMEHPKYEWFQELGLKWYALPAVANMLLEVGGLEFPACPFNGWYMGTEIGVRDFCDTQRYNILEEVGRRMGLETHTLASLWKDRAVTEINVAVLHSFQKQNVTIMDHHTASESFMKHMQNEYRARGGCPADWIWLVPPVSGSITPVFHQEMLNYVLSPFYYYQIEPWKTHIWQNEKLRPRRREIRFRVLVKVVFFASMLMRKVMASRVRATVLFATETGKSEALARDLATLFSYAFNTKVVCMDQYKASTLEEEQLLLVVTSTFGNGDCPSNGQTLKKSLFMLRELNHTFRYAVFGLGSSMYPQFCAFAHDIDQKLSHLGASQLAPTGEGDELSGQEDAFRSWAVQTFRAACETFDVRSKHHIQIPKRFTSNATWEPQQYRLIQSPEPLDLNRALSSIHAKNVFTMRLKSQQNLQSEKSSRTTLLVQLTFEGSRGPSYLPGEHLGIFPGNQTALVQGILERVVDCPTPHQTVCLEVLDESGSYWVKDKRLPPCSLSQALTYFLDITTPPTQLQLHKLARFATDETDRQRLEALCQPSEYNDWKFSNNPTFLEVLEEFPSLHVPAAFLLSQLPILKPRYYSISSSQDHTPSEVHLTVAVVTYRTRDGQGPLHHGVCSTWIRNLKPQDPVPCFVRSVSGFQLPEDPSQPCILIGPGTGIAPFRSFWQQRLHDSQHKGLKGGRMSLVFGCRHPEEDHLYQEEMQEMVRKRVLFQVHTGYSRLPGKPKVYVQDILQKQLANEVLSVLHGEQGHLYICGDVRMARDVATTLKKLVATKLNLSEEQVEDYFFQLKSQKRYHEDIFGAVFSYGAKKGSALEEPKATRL

Nitric oxide synthase 1 [2] = molecular target: T3, Nitric oxide synthase 1 (Rattus norvegicus, UniProt P29476); assay: Inhibition against neuronal Nitric Oxide Synthase(nNOS)
[3] = Selectivity for neuronal (nNOS) and endothelial Nitric Oxide Synthase(eNOS); design: reference not given here
[4] = Selectivity for neuronal(nNOS) and induced Nitric Oxide Synthase(iNOS); design: reference not given here
Nitric oxide synthase 1 [5] = molecular target: T3, Nitric oxide synthase 1; assay: (§1) Time dependent inhibition against neuronal Nitric Oxide Synthase(nNOS)
[6] = molecular target: Nitric oxide synthase 1 (Rattus norvegicus) (UniProt P29476); assay: as §1
Nitric oxide synthase 1 (Rattus norvegicus), sequence (P29476 whole entry): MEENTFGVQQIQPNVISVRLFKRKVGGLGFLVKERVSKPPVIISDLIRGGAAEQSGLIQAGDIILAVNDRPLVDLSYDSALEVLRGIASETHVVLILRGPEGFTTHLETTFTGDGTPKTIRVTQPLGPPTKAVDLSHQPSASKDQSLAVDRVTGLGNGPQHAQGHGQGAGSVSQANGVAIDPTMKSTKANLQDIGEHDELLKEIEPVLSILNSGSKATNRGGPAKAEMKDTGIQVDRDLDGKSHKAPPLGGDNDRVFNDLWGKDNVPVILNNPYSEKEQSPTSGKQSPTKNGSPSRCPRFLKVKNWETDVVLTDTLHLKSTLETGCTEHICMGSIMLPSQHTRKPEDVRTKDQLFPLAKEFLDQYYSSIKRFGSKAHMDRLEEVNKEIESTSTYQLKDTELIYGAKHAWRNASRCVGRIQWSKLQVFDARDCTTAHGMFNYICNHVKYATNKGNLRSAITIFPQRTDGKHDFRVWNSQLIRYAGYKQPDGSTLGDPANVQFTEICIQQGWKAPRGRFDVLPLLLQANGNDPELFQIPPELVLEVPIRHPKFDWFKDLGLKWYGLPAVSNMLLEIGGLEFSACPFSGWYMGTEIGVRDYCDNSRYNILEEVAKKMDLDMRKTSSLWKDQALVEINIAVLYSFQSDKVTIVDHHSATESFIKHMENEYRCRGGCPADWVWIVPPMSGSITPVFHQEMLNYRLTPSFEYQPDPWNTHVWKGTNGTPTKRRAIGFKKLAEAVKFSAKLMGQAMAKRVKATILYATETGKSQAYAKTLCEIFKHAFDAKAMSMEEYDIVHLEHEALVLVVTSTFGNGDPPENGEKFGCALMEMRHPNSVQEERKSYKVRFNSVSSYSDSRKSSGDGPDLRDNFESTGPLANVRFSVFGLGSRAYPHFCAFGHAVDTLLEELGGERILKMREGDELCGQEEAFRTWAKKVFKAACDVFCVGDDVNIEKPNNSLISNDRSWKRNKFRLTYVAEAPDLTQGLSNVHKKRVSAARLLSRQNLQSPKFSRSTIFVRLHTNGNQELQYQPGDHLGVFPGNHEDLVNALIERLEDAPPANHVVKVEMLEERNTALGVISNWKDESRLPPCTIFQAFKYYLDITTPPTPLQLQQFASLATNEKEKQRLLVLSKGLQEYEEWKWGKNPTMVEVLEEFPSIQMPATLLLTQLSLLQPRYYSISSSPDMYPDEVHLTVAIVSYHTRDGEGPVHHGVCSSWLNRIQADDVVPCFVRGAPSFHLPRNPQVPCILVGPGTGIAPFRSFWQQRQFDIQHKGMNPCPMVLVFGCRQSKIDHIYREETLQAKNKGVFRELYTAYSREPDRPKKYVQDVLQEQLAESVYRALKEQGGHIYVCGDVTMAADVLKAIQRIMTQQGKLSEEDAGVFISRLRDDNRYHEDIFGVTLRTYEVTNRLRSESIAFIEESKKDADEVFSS

T3 sequence (P29476 whole entry): as above

Ki (Nitric oxide synthase 3) [µM] | Ki [1] [µM] | Ki (Nitric oxide synthase 1 [2]) [µM] | Ratio [3] | Ratio [4] | Ki (Nitric oxide synthase 1 [5]) [µM] | K inact [6] [min⁻¹] | SMILES
700 | 50 | 60 | 14 | 0.8 | – | – | CCCCC/N=C(\N)n1cccn1
100 | 9 | 8 | 13 | 1.1 | – | – | Cc1ccn(C(=N)N)n1
180 | 150 | 45 | 4 | 3.3 | – | – | CC(C)C/N=C(\N)n1cccn1
460 | 50 | 6 | 77 | 8.3 | – | – | NCCCC/N=C(\N)n1cccn1
120 | 80 | 50 | 2.4 | 1.6 | – | – | N=C(NC1CC1)n1cccn1
650 | 780 | 700 | 0.9 | 1.1 | – | – | CCCC/N=C(\N)NCCC
200 | 12 | 2 | 100 | 6 | – | – | N=C(Nc1cccc(CN)c1)n1cccn1
25 | 14 | 14 | 1.8 | 1 | – | – | CCCC/N=C(\N)n1cccn1
1500 | 750 | 350 | 4.3 | 2.1 | – | – | Cc1cc(C)n(C(=N)N)n1
9 | 5 | 3 | 3 | 1.7 | 33 | 0.024 | CCC/N=C(\N)n1cccn1
80 | 22 | 10 | 8 | 2.2 | – | – | N=C(NCC1CC1)n1cccn1
190 | 3 | 12 | 16 | 0.3 | – | – | Cc1cnn(C(=N)N)c1

SMILES | Ki (Nitric oxide synthase 3) [µM] | Ki [1] [µM] | Ki (Nitric oxide synthase 1 [2]) [µM] | Ratio [3] | Ratio [4] | Ki (Nitric oxide synthase 1 [5]) [µM] | K inact [6] [min⁻¹]
N=C(N)n1cccn1 | 0.5 | 0.7 | 0.4 | 1.3 | 1.8 | – | –
N=C(Nc1cccc(CN)c1)c1ccco1 | – | 0.16 | – | – | – | – | –
N=C(Nc1cccc(CN)c1)c1cccs1 | 0.46 | 0.12 | – | – | – | – | –

— ChEMBL document CHEMBL1132848, “1H-pyrazole-1-carboxamidines: new inhibitors of nitric oxide synthase” (Bioorg Med Chem Lett, 2000)
